Consider 28 molecules from patent publication US9388140B2, “Substituted benzimidazoles” (priority 2011, dated 2016).

Each structure is given as a SMILES string.

human kinase Mps-1, sequence (P33981 whole entry): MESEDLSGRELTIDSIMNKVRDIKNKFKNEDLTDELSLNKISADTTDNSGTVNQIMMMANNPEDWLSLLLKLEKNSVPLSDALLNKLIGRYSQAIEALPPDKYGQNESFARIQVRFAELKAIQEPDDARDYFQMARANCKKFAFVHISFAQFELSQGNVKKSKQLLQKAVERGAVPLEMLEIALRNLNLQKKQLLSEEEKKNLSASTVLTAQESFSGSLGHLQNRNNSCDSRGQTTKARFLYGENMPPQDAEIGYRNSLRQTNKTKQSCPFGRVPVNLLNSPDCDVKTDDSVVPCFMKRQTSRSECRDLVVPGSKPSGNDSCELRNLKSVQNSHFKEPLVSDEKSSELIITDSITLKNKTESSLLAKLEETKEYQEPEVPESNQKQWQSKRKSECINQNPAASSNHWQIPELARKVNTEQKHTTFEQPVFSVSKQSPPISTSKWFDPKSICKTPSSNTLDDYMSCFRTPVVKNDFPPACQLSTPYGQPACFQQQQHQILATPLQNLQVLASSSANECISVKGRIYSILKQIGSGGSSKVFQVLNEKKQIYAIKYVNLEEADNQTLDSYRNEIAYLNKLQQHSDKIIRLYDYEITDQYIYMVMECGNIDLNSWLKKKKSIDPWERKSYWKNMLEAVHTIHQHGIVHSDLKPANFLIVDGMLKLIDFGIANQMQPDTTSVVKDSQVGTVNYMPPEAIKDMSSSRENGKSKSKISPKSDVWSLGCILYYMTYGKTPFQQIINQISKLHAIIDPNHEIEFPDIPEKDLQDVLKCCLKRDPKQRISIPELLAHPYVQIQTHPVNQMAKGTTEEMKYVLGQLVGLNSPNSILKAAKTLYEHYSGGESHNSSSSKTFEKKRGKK

One assay addresses human kinase Mps-1 (Homo sapiens (Human), UniProt P33981). Put plainly: Mps-1 kinase assay (TR-FRET). The assay is classed as biochemical.
Details: not given
The protocol: The human kinase Mps-1 phosphorylates a biotinylated substrate peptide. Detection of the phosphorylated product is achieved by time-resolved fluorescence resonance energy transfer (TR-FRET) from Europium-labelled anti-phospho-Serine/Threonine antibody as donor to streptavidin labelled with cross-linked allophycocyanin (SA-XLent) as acceptor. Compounds are tested for their inhibition of the kinase activity.
N-terminally GST-tagged human full length recombinant Mps-1 kinase (purchased from Invitrogen, Karslruhe, Germany, cat. no PV4071) was used. As substrate for the kinase reaction a biotinylated peptide of the amino-acid sequence […] (C-terminus in amide form, purchased from Biosynthan GmbH, Berlin) was used.
The concentration of Mps-1 in the assay was adjusted to the activity of the enzyme lot and was chosen appropriate to have the assay in the linear range, typical enzyme concentrations were in the range of about 1 nM (final conc. in the 5 μl assay volume).
The resulting mixture was incubated 1 h at 22° C. to allow the binding of the phosphorylated peptide to the anti-phospho(Ser/Thr)-Europium-antibody. Subsequently the amount of phosphorylated substrate was evaluated by measurement of the resonance energy transfer from the Europium-labelled anti-phospho(Ser/Thr) antibody to the Streptavidin-XLent.
Background: Time-resolved FRET reads energy transfer from a long-lived donor to a nearby acceptor.
The molecule `O=C(NC1CC1)c1ccc(-n2cnc3c(NCCC(F)(F)F)cc(Oc4ccccc4)cc32)cc1` [Example 37, N-cyclopropyl-4-{6-phenoxy-4-[(3,3,3-trifluoropropyl)amino]-1H-benzimidazol-1-yl}benzamide] had an IC50 of 0.5 nM.

Staying with this assay, now noted: N-terminally GST-tagged human full length recombinant Mps-1; 10 μM ATP; 1 μM biotinylated peptide substrate; read-out: Mps1 IC50.
On to `CCNC(=O)c1ccc(-n2cnc3c(NCCC(F)(F)F)cc(Oc4ccc(OC)c(F)c4)cc32)cc1C` [Example 34, N-ethyl-4-{6-(3-fluoro-4-methoxyphenoxy)-4-[(3,3,3-trifluoropropyl)amino]-1H-benzimidazol-1-yl}-2-methylbenzamide], for which the IC50 came out at 5.8 nM. Still for that read-out and setting: the same measure for `Cc1cc(-n2cnc3c(NCCC(F)(F)F)cc(Oc4ccc(N5CCOCC5)cc4)cc32)ccc1C(=O)NC1CC1` [Example 60, N-cyclopropyl-2-methyl-4-{6-[4-(morpholin-4-yl)phenoxy]-4-[(3,3,3-trifluoropropyl)amino]-1H-benzimidazol-1-yl}benzamide]: 11.5 nM.

`Cc1cc(-n2cnc3c(NCCC(F)(F)F)cc(Oc4cccc(S(C)(=O)=O)c4)cc32)ccc1C(=O)NC1CC1` [Example 64, N-cyclopropyl-2-methyl-4-{6-[3-(methylsulfonyl)phenoxy]-4-[(3,3,3-trifluoropropyl)amino]-1H-benzimidazol-1-yl}benzamide]: the IC50 turned out to be 2.6 nM. Turning to `CCNC(=O)c1ccc(-n2cnc3c(NCCC(F)(F)F)cc(Oc4cccc(F)c4OC)cc32)cc1C` [Example 71, N-ethyl-4-{6-(3-fluoro-2-methoxyphenoxy)-4-[(3,3,3-trifluoropropyl)amino]-1H-benzimidazol-1-yl}-2-methylbenzamide], the IC50 stood at 28.5 nM. As to `COc1ccccc1Oc1cc(NCCC(F)(F)F)c2ncn(-c3ccc(C(=O)NC4CC4)c(C)c3)c2c1` [Example 41, N-cyclopropyl-4-{6-(2-methoxyphenoxy)-4-[(3,3,3-trifluoropropyl)amino]-1H-benzimidazol-1-yl}-2-methylbenzamide], the half-inhibitory concentration (IC50) amounted to 10.1 nM.

With `Cc1cc(-n2cnc3c(NCCC(F)(F)F)cc(Nc4ccccc4O)cc32)ccc1C(=O)NC1CC1` [Example 82, N-cyclopropyl-4-{6-[(2-hydroxyphenyl)amino]-4-[(3,3,3-trifluoropropyl)amino]-1H-benzimidazol-1-yl}-2-methylbenzamide], the IC50 stood at 3.9 nM. As to `COc1ccccc1Nc1cc(NCCC(F)(F)F)c2ncn(-c3ccc(C(=O)NC4CC4)c(C)c3)c2c1` [Example 63, N-cyclopropyl-4-{6-[(2-methoxyphenyl)amino]-4-[(3,3,3-trifluoropropyl)amino]-1H-benzimidazol-1-yl}-2-methylbenzamide], the 50% inhibitory concentration (IC50) was determined as 18.9 nM. On to `COc1ccccc1C(=O)c1cc(NCCC(F)(F)F)c2ncn(-c3ccc(C(=O)NC4CC4)c(C)c3)c2c1` [Example 110, N-cyclopropyl-4-{6-(2-methoxybenzoyl)-4-[(3,3,3-trifluoropropyl)amino]-1H-benzimidazol-1-yl}-2-methylbenzamide], for which the IC50 stood at 12 nM. Consider `Cc1cc(F)cc(Oc2cc(NCCC(F)(F)F)c3ncn(-c4ccc(C(=O)NC5CC5)c(C)c4)c3c2)c1` [Example 26, N-cyclopropyl-4-{6-(3-fluoro-5-methylphenoxy)-4-[(3,3,3-trifluoropropyl)amino]-1H-benzimidazol-1-yl}-2-methylbenzamide], for which the half-maximal inhibitory concentration (IC50) came out at 1.8 nM. With `Cc1cc(-n2cnc3c(NCC4CCOCC4)cc(Oc4cccc(F)c4)cc32)ccc1C(=O)NC1CC1` [Example 9, N-cyclopropyl-4-{6-(3-fluorophenoxy)-4-[(tetrahydro-2H-pyran-4-ylmethyl)amino]-1H-benzimidazol-1-yl}-2-methylbenzamide], the IC50 is 0.4 nM. As for `CCNC(=O)c1ccc(-n2cnc3c(NCC4CCOCC4)cc(Oc4ccc(OC)cc4F)cc32)cc1C` [Example 87, N-ethyl-4-{6-(2-fluoro-4-methoxyphenoxy)-4-[(tetrahydro-2H-pyran-4-ylmethyl)amino]-1H-benzimidazol-1-yl}-2-methylbenzamide], the IC50 was 11.4 nM. Same read-out and setting: the same measure for `CCNC(=O)c1ccc(-n2cnc3c(NCCC(F)(F)F)cc(Oc4cccc(OC)c4)cc32)cc1C` [Example 69, N-ethyl-4-{6-(3-methoxyphenoxy)-4-[(3,3,3-trifluoropropyl)amino]-1H-benzimidazol-1-yl}-2-methylbenzamide]: 25.9 nM; for `Cc1cc(-n2cnc3c(NCCC(F)(F)F)cc(Oc4ccc(F)c(F)c4)cc32)ccc1C(=O)NC1CC1` [Example 27, N-cyclopropyl-4-{6-(3,4-difluorophenoxy)-4-[(3,3,3-trifluoropropyl)amino]-1H-benzimidazol-1-yl}-2-methylbenzamide]: 1.4 nM. As to `Cc1cc(-n2cnc3c(NCCC(F)(F)F)cc(-c4ccnn4C)cc32)ccc1C(=O)NC1CC1` [Example 30, N-cyclopropyl-2-methyl-4-{6-(1-methyl-1H-pyrazol-5-yl)-4-[(3,3,3-trifluoropropyl)amino]-1H-benzimidazol-1-yl}benzamide], the half-inhibitory concentration (IC50) worked out at 4.8 nM. For `Cc1ccc(F)cc1Nc1cc(NCC2CCOCC2)c2ncn(-c3ccc(C(=O)NC4CC4)c(C)c3)c2c1` [Example 19, N-cyclopropyl-4-{6-[(5-fluoro-2-methylphenyl)amino]-4-[(tetrahydro-2H-pyran-4-ylmethyl)amino]-1H-benzimidazol-1-yl}-2-methylbenzamide], the IC50 stood at 1.2 nM.

Consider `CCNC(=O)c1ccc(-n2cnc3c(NCCC(F)(F)F)cc(Oc4ccc(OC)cc4F)cc32)cc1C` [Example 89, N-ethyl-4-{6-(2-fluoro-4-methoxyphenoxy)-4-[(3,3,3-trifluoropropyl)amino]-1H-benzimidazol-1-yl}-2-methylbenzamide], for which the IC50 amounted to 10.8 nM. Turning to `Cc1cc(-n2cnc3c(NCCC(F)(F)F)cc(Oc4cccc(F)c4)cc32)ccc1C(=O)NC1(C)CC1` [Example 12, 4-{6-(3-Fluorophenoxy)-4-[(3,3,3-trifluoropropyl)amino]-1H-benzimidazol-1-yl}-2-methyl-N-(1-methylcyclopropyl)benzamide], the IC50 worked out at 15.3 nM.

For `CCNC(=O)c1ccc(-n2cnc3c(NCCC(F)(F)F)cc(Oc4cccc(F)c4O)cc32)cc1C` [Example 93, N-ethyl-4-{6-(3-fluoro-2-hydroxyphenoxy)-4-[(3,3,3-trifluoropropyl)amino]-1H-benzimidazol-1-yl}-2-methylbenzamide], the 50% inhibitory concentration (IC50) was determined as 4.1 nM. For `CNC(=O)c1ccc(-n2cnc3c(NCCC(F)(F)F)cc(Oc4ccc(OC)c(F)c4)cc32)cc1C` [Example 35, 4-{6-(3-Fluoro-4-methoxyphenoxy)-4-[(3,3,3-trifluoropropyl)amino]-1H-benzimidazol-1-yl}-N,2-dimethylbenzamide], the IC50 was determined as 3.9 nM. Take `Cc1cc(-n2cnc3c(NCCC(F)(F)F)cc(Oc4cccc(F)c4O)cc32)ccc1C(=O)NC1CC1` [Example 91, N-cyclopropyl-4-{6-(3-fluoro-2-hydroxyphenoxy)-4-[(3,3,3-trifluoropropyl)amino]-1H-benzimidazol-1-yl}-2-methylbenzamide]: the IC50 worked out at 0.4 nM. The same measure, in the same setting: the same measure for `Cc1cc(-n2cnc3c(NCC4CCOCC4)cc(Oc4cccc(F)c4F)cc32)ccc1C(=O)NC1CC1` [Example 25, N-cyclopropyl-4-{6-(2,3-difluorophenoxy)-4-[(tetrahydro-2H-pyran-4-ylmethyl)amino]-1H-benzimidazol-1-yl}-2-methylbenzamide]: 0.2 nM. Turning to `Cc1cc(-n2cnc3c(NCCC(F)(F)F)cc(Oc4cccc(F)c4F)cc32)ccc1C(=O)NC1CC1` [Example 14, N-cyclopropyl-4-{6-(2,3-difluorophenoxy)-4-[(3,3,3-trifluoropropyl)amino]-1H-benzimidazol-1-yl}-2-methylbenzamide], the IC50 is 0.5 nM. On the same count and under the same terms, the result for `CNC(=O)c1ccc(-n2cnc3c(NCCC(F)(F)F)cc(Oc4ccc(O)cc4)cc32)cc1C` [Example 48, 4-{6-(4-Hydroxyphenoxy)-4-[(3,3,3-trifluoropropyl)amino]-1H-benzimidazol-1-yl}-N,2-dimethylbenzamide] reads 5.6 nM; that for `CNC(=O)c1ccc(-n2cnc3c(NCCC(F)(F)F)cc(Oc4ccccc4OC)cc32)cc1C` [Example 39, 4-{6-(2-Methoxyphenoxy)-4-[(3,3,3-trifluoropropyl)amino]-1H-benzimidazol-1-yl}-N, 2-dimethylbenzamide], 43.3 nM. For `Cc1cc(-n2cnc3c(NCCC(F)(F)F)cc(C(=O)c4ccc(O)c(F)c4)cc32)ccc1C(=O)NC1CC1` [Example 108, N-cyclopropyl-4-{6-(3-fluoro-4-hydroxybenzoyl)-4-[(3,3,3-trifluoropropyl)amino]-1H-benzimidazol-1-yl}-2-methylbenzamide], the 50% inhibitory concentration (IC50) turned out to be 17 nM. With `CNC(=O)c1ccc(-n2cnc3c(NCCC(F)(F)F)cc(-c4ccnn4C)cc32)cc1C` [Example 32, N, 2-dimethyl-4-{6-(1-methyl-1H-pyrazol-5-yl)-4-[(3,3,3-trifluoropropyl)amino]-1H-benzimidazol-1-yl}benzamide], the IC50 turned out to be 20.2 nM. The same measure, in the same setting: the result for `Cc1ccc(F)cc1Oc1cc(NCCC(F)(F)F)c2ncn(-c3ccc(C(=O)NC4CC4)c(C)c3)c2c1` [Example 107, N-cyclopropyl-4-{6-(5-fluoro-2-methylphenoxy)-4-[(3,3,3-trifluoropropyl)amino]-1H-benzimidazol-1-yl}-2-methylbenzamide] reads 5.3 nM.

Broadly, the IC50 is the point on the concentration scale where inhibition reaches its midpoint.
